Read-outs that look alike come from different tables or passages of the source.

In one assay the test system is IL-1β. The experiment in a line: LPS-induced inflammatory response in astrocytes, IL-1β release (ELISA). It is filed as cell-based, Kunming mice. The note with it: culture supernatant, LPS 1 μg·ml-1 + substance 10 μg·ml-1, 24 h, n=6. The source says: Experiment 9 Inhibition of 5-Methyltetrahydrofolate and Curcumin on LPS-Induced Inflammatory Response in Astrocytes
The cerebral cortex of Kunming mice at 1˜2 d was taken out under aseptic conditions, washed 3 times with cold PBS after removing residual meninges and blood vessels, prepared into single cell suspension by blowing, centrifuged, the supernatant was discarded, and the precipitant was resuspended in AST basic medium (high-sugar DMEM containing 10% FBS). The suspension was inoculated into a culture flask coated with poly-L-lysine (0.1 mg/ml), and cultured in a CO2 incubator. After 24 h, tissue debris and non-adherent cells were removed by replacing the medium. Afterwards, the medium was replaced every 3 days until the cells reached 80% confluence, then the flask was placed on a constant temperature rotary shaker, where the suspension was centrifuged at 180 r/min, 37° C. for 18 h to remove oligodendrocytes and microglia from the upper layer. Then trypsin digestion was used for subculture. […]
LPS (1 μg·ml-1), LPS (1 μg·ml-1)+curcumin (10 μg·ml-1), LPS (1 μg·ml-1)+5-MTHF-Ca (10 μg·ml-1); experimental group: LPS (1 μg·ml-1)+curcumin (5 μg·ml-1)+5-MTHF-Ca (5 μg·ml-1). After 24 h, the culture supernatant was collected, and the cytokines IL-6, IL-1β and TNF-α were detected by ELISA.

The subject of the next assay is hyperlipemia rats. The assay is described as follows: Hyperlipemia rats (high-fat diet), body mass, liver mass, liver index, NASH pathology. It is filed as in vivo, SD rats. As to conditions: for Body mass / Liver index / Liver mass: 8 cases; for Pathological state (NASH): of 8 cases. As to the method:
Experiment 5 Effect of 5-Methyltetrahydrofolate Calcium on Hyperlipemia Rats
7 weeks later, one rat in the control group and one rat in the model group were sacrificed for liver tissue section to check fatty degeneration of hepatocytes (see Table 7) to confirm whether modeling was successful. The remaining 40 modeling rats were randomly divided into low-dose (1 mg·Kg−1) group, medium-dose (2 mg·Kg−1) group, high-dose (4 mg·Kg−1) group, positive drug group, and model group.
Bicyclol (place of origin: Beijing Xiehe Pharmaceutical Factory, specification: 25 mg/tablet, batch number: H20040467) was used as a positive drug.
After successful modeling, rats were administered drugs with dosages as prescribed for 60 consecutive days, continued to be fed with high-fat diet, and dissected on the 61st day. Liver was harvested and weighed, liver index was calculated, right lobe tissue was taken to prepare frozen sections, and fat staining was performed with Sudan III for pathological scoring according to guidelines for diagnosis and treatment of NAFLD. Another liver tissue was taken to prepare homogenate, and total cholesterol (TC), triglyceride (TG), malondialdehyde (MDA), and superoxide dismutase (SOD) in serum were detected.

The subject of assay [1] is alcoholic steatohepatitis. The note with it: 4 mg·Kg−1 daily. As to the method:
Experiment 12 Effect of 5-Methyltetrahydrofolate on Intestine Induced by Chronic Alcohol
96 SPF-grade SD rats, half female and half male, were chosen with an average weight of 176-220 g at the beginning of the experiment, and randomly divided into vehicle control group (glucose, 10 g·Kg−1) and model control group (liquor, 6 g·Kg−1), 5-methyltetrahydrofolate calcium group (folic acid, 4 mg·Kg−1, glucose, 10 g·Kg−1), half female and half, 16 rats in each group. […] The day on which the dose of alcohol reached 6g·Kg−1 was defined as the first day of modeling. The intestinal permeability of rats was measured at Weeks 2 and 8, then 5 rats were sacrificed at random, blood and liver tissues were taken.
8 weeks later, rats in the remaining groups received fecal microbiota transplantation from patients with alcoholic steatohepatitis, and were sacrificed at Week 10, then blood and liver tissues were taken.
60 g of stools were collected from patients with alcoholic steatohepatitis, mixed with 300 mL of normal saline and filtered, and the bacteria solution was stored in an anaerobic bag at 4° C. for later use. After 8 weeks, the remaining rats in all groups were anesthetized with ether, and catheter was used to slowly inject the bacteria solution (2 mL) into their colon, and the rats continued to be fed with the same doses the next day. At Week 10, all rats were sacrificed, liver tissues were stained with H&E and sectioned for disease assessment. At least three different sections of each rat were studied to reasonably assess liver lesions. In order to reasonably assess fatty degeneration, necrosis, inflammation, and fibrosis of liver, liver lesions were graded into different degrees. The proportion of fatty liver cells was <50%, 50-75% and >75%, respectively, corresponding to the severity of fatty degeneration. Focal necrosis was also quantified (number of necrotic foci/mm2), and dense inflammatory infiltrates were also graded. Alcoholic steatohepatitis (ASH) is defined as the presence of inflammatory cell infiltration, spot necrosis and stem cell necrosis in the liver.

The subject of the next assay is homocysteine (Hcy). The assay is described as follows: Homocysteine (Hcy) in plasma of alcohol drinking rats. It is filed as in vivo, SD rats. As to conditions: plasma 6 h after Erguotou 20 ml·Kg−1. The protocol: Experiment 2 Effect of 5-methyltetrahydrofolate on homocysteine (Hcy) in plasma of alcohol drinking rats.
30 SPF-grade SD rats were chosen in half male and half female, and divided into 5 groups with 6 rats in each group, including normal group, model group, positive drug group (Weihe Liver Protectant), 5-methyltetrahydrofolate administration groups (4 mg·Kg−1 medium dose group, 8 mg·Kg−1 high dose group, respectively). After fasting for 12 h, the administration groups were given Weihe Liver Protectant at 50 mg·kg−1, 5-methyltetrahydrofolate (Jinkang Hexin product) at 4 mg·Kg−1, 5-methyltetrahydrofolate (Jinkang Hexin product) at 8 mg·Kg−1, respectively. […] 6 h after drinking, blood was collected from the eye socket, treated with 0.5% EDTA-Na for anticoagulation (10 ml/L), immediately cooled in an ice bath, and centrifuged at 4° C. (3500r/min) for 15 min within 30 min. Plasma was collected and stored at −20° C. The plasma Hcy concentration was determined with high pressure liquid chromatography-fluorescence detection method.

Setting [2] is: Week 10 after fecal microbiota transplantation, n = 6.

As to 5-methyltetrahydrofolate calcium, the IL-1β in the assay on IL-1β came out at 721.45 ± 8.79 pg/mL. Besides, in the assay with hyperlipemia rats (high dose 4 mg·Kg−1, 60 d), the Body mass was 472.49 ± 37.8 g, the Liver index worked out at 2.3 ± 0.5, the Liver mass is listed as 10.9 ± 2.5 g and the “Pathological state (NASH)” value was 0 case. Further, in the assay on hyperlipemia rats (low dose 1 mg·Kg−1, 60 d), the Body mass came to 445.89 ± 39.0 g, the Liver index is 3.4 ± 0.3, the Liver mass was determined as 15.3 ± 3.5 g and the “Pathological state (NASH)” value was determined as 1 case. Also, in the assay on hyperlipemia rats (medium dose 2 mg·Kg−1, 60 d), the Body mass is listed as 452.93 ± 37.5 g, the Liver index is 2.6 ± 0.2, the Liver mass is 11.6 ± 2.9 g and the “Pathological state (NASH)” value is given as 0 case.

Take `CN1c2c([nH]c(N)nc2=O)NCC1CNc1ccc(C(=O)N[C@@H](CCC(=O)O)C(=O)O)cc1` (stereo partly drawn) [5-methyltetrahydrofolate, N-[4-[[(2-amino-1,4,5,6,7,8-hexahydro-4-oxo-5-methyl-(6S), -(6R), and (6R,S)-pteridyl)methyl)amino)toluoyl-glutamic acid]: in assay [1] (Week 8, n = 5), the “Case percentage: fatty degeneration, percentage of fatty liver cells 50-75%” value stood at 20%; the “Case percentage: fatty degeneration, percentage of fatty liver cells < 50%” value is 80%; the “Case percentage: fatty degeneration, percentage of fatty liver cells > 75%” value is 0%; the “Case percentage: inflammatory foci 1-4 pcs/mm^2” value was found to be 0%. Moreover, in assay [1] (Week 8, n = 5), the “Case percentage: inflammatory foci <1 pc/mm^2” value came out at 100%, the “Case percentage: inflammatory foci >4 pcs/mm^2” value is 0%, the “Case percentage: liver fibrosis” value turned out to be 0% and the “Case percentage: necrosis foci 1-3 pcs/mm^2” value is listed as 0%. Also, in assay [1] (Week 8, n = 5), the “Case percentage: necrosis foci <1 pc/mm^2” value amounted to 100% and the “Case percentage: necrosis foci >3 pcs/mm^2” value was 0%. In addition, in assay [1] (setting [2]), the “Case percentage: fatty degeneration, percentage of fatty liver cells 50-75%” value came out at 33.3%; the “Case percentage: fatty degeneration, percentage of fatty liver cells < 50%” value is given as 66.7%; the “Case percentage: fatty degeneration, percentage of fatty liver cells > 75%” value is given as 0%; the “Case percentage: inflammatory foci 1-4 pcs/mm^2” value stood at 0%. Also, in assay [1] (setting [2]), the “Case percentage: inflammatory foci <1 pc/mm^2” value is reported as 100%, the “Case percentage: inflammatory foci >4 pcs/mm^2” value was 0%, the “Case percentage: liver fibrosis” value stood at 0% and the “Case percentage: necrosis foci 1-3 pcs/mm^2” value is 0%. Moreover, in assay [1] (setting [2]), the “Case percentage: necrosis foci <1 pc/mm^2” value was 100% and the “Case percentage: necrosis foci >3 pcs/mm^2” value is reported as 0%. Moreover, in the assay with homocysteine (Hcy) (4 mg·Kg−1, n=6), the Hcy was 3.13 ± 1.26 µmol/L. The Hcy with homocysteine (Hcy) (8 mg·Kg−1, n=6) was found to be 2.32 ± 1.49 µmol/L.

The values are drawn from patent US20220280507A1, “USES OF 5-METHYLTETRAHYDROFOLATE AND ITS COMPOSITION” (Lianyungang Jinkang Hexin Pharmaceutical Co., Ltd., priority 2019, published 2022).
